Reference: patent publication US8030342B2, “Dendritic polyamidoamine phthalocyanine derivative” (Nihon University, priority 2006, dated 2011)
Values joined by “and” are separate entries in the source; they are usually repeats but may differ in a detail not shown here. Identical values can stand only once.

Experiments:
Format in all cases: physicochemical
[1] = ESR spectra
Source text: Also, the data on g value indicate that the dendritic PC generates radicals.

[2] = UV-Vis spectra; set-up: λmax: unit not given here; details: for λmax: UV-Vis absorption maxima; for log ε: UV-Vis, at the λmax of the same line
[3] = fluorescence spectra; details: fluorescence maximum

Compound | g value [1] | λmax [2] | log ε [2] | Fmax [3]
c1ccc2c(c1)C1=NC2=Nc2c3ccccc3c3[n]2[Zn][n]2c(c4ccccc4c2=NC2=NC(=N3)c3ccccc32)=N1 [Zn—PC] | 1.9712 and 2.0245 | 655.50 and 607.00 | 4.5813 and 4.5391 | 715
c1ccc2c(c1)-c1nc-2nc2[nH]c(nc3nc(nc4[nH]c(n1)c1ccccc41)-c1ccccc1-3)c1ccccc21 [H2—PC] | 1.9712 and 2.0245 | 687.50 and 654.00 and 624.50 | – | 625 and 700
O=C(O)c1cc2c(cc1C(=O)O)-c1nc-2nc2[n-]c(nc3nc(nc4[n-]c(n1)c1cc(C(=O)O)c(C(=O)O)cc41)-c1cc(C(=O)O)c(C(=O)O)cc1-3)c1cc(C(=O)O)c(C(=O)O)cc21.[Zn+2] [Zn—PC octacarboxylic acid, Zinc Phthalocyanine (PC) Octacarboxylic Acid] | 1.9713 and 2.0245 | 769.00 and 747.00 | 4.2560 and 4.2054 | 780
Zinc Phthalocyanine Tetracarboxylic Acid [Zn—PC tetracarboxylic acid] | 2.0245 and 1.9713 | 690.50 and 772.50 | – | 805
